The values below come from US12122761B2, “2-azaspiro[3.4]octane derivatives as M4 agonists” (NOVARTIS AG, priority 2019, dated 2024).

In assay [1] the target is T1, human cloned CHRM4 receptor (M4_CHO cells) (Homo sapiens, UniProt P08173).
T1 construct: expressed in transfected cells; host or cells: CHO-K1
T1 sequence (P08173 1-479): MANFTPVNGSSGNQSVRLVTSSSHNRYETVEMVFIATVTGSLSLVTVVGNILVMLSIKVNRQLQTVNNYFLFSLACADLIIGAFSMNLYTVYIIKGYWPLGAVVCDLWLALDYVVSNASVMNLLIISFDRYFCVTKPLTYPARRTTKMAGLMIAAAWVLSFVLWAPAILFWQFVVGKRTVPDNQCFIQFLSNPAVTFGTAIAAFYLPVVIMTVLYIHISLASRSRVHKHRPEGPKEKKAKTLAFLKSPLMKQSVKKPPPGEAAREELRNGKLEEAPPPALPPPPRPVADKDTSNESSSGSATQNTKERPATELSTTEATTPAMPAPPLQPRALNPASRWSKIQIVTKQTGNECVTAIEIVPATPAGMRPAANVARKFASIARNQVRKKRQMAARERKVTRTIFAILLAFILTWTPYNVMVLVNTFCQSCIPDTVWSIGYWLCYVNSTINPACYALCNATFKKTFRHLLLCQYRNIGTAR
Nature of the assay: CHRM4 Ca++ Flux Assay (agonist mode, FDSS 7000EX). The class given is cell-based. To be noted: for M4 FDSS PA / Emax: Percent Activity; for EC50: geometric mean if tested more than once, read-out: M4 FDSS EC50; for Emax: read-out: M4 FDSS PA. As for the experimental part: (§1) The above examples were characterized by measuring the intracellular mobilization of Ca++ ions caused by signaling events mediated by the receptor. The Intra-cellular Calcium flux levels were captured by the highly sensitive Ca++ indicator, Calcium Assay Kit (BD Biosciences, Catalog Number 640178). The fluorescent activity from all receptors were monitored by the fluorescent imager, FDSS 7000EX (Hamamatsu) over a span of 3 minutes.
(§2) CHO-K1 cells stably expressing the human cloned CHRM4 receptor (M4_CHO cells) were grown and maintained in a monolayer culture with F12/HAM (Life Technologies) supplemented with 10% Fetal Bovine Serum, 1× Pen-Strep, and 0.4 mg/mL Geneticin in a humidified atmosphere (5% CO2) at 37° C. The cultures were grown to 80-90% confluency in T150 flasks (Corning) and washed with 1×DPBS then lifted with 0.05% Trypsin (Life Technologies). The cells were harvested in growth media then spun (1K rpm, 3 minutes) and cryopreserved using Recovery Cell Culture Freezing Media (Gibco Technologies). Cells were stored in liquid nitrogen and thawed a day before the assay.
Prior to the day of the assay, stable M4_CHO cells were thawed and plated on 384 well black walled clear bottom TC treated plates (Greiner Cat #781091) at 12K cells/well using F12/HAM Media supplemented with 10% FBS (Life Technologies) and kept overnight in a humidified atmosphere (5% CO2) at 37° C. The next day, cells were loaded with […] Ca^++ dye (BD Biosciences) using Loading Buffer (HBSS +Ca/+Mg, 20 mM HEPES, 2.5 mM Probenecid) and placed back in cell incubator for a minimum of 1 hour. After incubation, the dye was replaced with 45 μL Assay Buffer (HBSS −Ca/−Mg, 20 mM HEPES, 2.5 mM Probenecid) supplemented with 20 μM ATP (Sigma Aldrich) and kept at room temperature in the dark for 60 minutes before running on a cell imager. The FDSS 7000EX (Hamamatsu) was used to capture Ca^++ traces for a span of 3 minutes from cells treated with 11 point dose of compound in triplicate in order to generate dose response curves in agonist mode. All compounds were serially diluted in DMSO then prepared in Assay Buffer for Ca^++ flux studies. The dose response curves were generated from the average of triplicate wells obtained from each data point and used a non-linear regression of four parameter dose response algorithm. The Percent Activity (PA) was measured to EC100 of Carbachol.

Assay [2] concerns the target T2, human cloned CHRM2 receptor (M2_CHO cells) (Homo sapiens, UniProt P08172).
T2 construct: expressed in transfected cells; host or cells: CHO-K1
T2 sequence (P08172 1-466): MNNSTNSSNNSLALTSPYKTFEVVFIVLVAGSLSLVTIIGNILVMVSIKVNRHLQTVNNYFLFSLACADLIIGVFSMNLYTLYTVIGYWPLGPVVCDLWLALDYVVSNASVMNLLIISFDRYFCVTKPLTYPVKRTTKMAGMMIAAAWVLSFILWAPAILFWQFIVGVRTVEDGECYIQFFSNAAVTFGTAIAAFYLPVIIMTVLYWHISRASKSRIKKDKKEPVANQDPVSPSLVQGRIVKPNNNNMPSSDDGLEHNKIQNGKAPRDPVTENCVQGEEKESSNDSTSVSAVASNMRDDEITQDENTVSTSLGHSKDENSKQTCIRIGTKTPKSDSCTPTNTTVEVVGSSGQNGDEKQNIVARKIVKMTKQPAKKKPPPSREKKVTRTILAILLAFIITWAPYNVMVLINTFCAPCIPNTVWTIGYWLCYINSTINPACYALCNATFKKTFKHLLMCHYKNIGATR
The assay is described as follows: CHRM2 Ca++ Flux Assay (agonist mode, FDSS 7000EX). The class given is cell-based. The following applies: for M2 FDSS PA / Emax: Percent Activity measured to EC100 of Carbachol; for EC50: agonist mode, geometric mean if tested more than once, read-out: M2 FDSS EC50; for Emax: read-out: M2 FDSS PA. As for the experimental part: as §1
as §2, with “cloned CHRM2” for “cloned CHRM4”, “receptor (M2_CHO” for “receptor (M4_CHO”, “to 80-9 0%” for “to 80-90%”, “1×DPBS and” for “1×DPBS then”, “were” for “were harvested in growth media”, “and frozen” for “and cryopreserved”
Prior to the day of the assay, stable M2 CHO cells were thawed and plated on Greiner 384 well TC treated plate at a density of 12K cells/well and kept overnight in a humidified atmosphere (5% CO2) at 37° C. The following day, the cells were loaded with Ca^++ dye (BD Biosciences) using Loading Buffer (HBSS +Ca/+Mg, 20 mM HEPES, 2.5 mM Probenecid) and placed back in cell incubator for a minimum of 1 hour and maximum of 2 hours. After incubation, the dye was replaced with Assay Buffer (HBSS −Ca/−Mg, 20 mM HEPES, 2.5 mM Probenecid) supplemented with 20 μM ATP (Sigma Aldrich) and kept at room temperature for 60 minutes prior before running on cell imager. The FDSS 7000EX (Hamamatsu) was used to acquire Ca^++ traces from cells in response to compound treatment and the data was used to generate dose response curves in agonist mode. All compounds were serially diluted in DMSO then prepared in Assay Buffer for Ca^++ flux studies. The dose response curves were generated from the average of triplicate wells obtained from each data point and used a non-linear regression of four parameter dose response algorithm. The Percent Activity (PA) was measured to EC100 of Carbachol.

Read-outs that look alike come from different tables or passages of the source.

A word on the EC50: it is the concentration giving half of the maximal effect. For the compound `OC1CCC(c2ccccc2C2CCN([C@@H]3CCC4(C3)CN(c3nnco3)C4)CC2)CC1` (single isomer, unassigned) [Example 2O, (1s,4r)-4-(2-(1-((R)-2-(1,3,4-oxadiazol-2-yl)-2-azaspiro[3.4]octan-6-yl)piperidin-4-yl)phenyl)cyclohexan-1-ol or (1r,4r)-4-(2-(1-((R)-2-(1,3,4-oxadiazol-2-yl)-2-azaspiro[3.4]octan-6-yl)piperidin-4-yl)phenyl)cyclohexan-1-ol], in assay [1], the “M4 FDSS PA” value was found to be 89% and the EC50 is less than 0.4 nM. In addition, in assay [2], the “M2 FDSS PA” value came to 28% and the EC50 was found to be 90 nM.

Consider `COc1ccccc1C1CCN([C@@H]2CCC3(C2)CN(c2cnccn2)C3)CC1` [Example 5H, (R)-6-(4-(2-methoxyphenyl)piperidin-1-yl)-2-(pyrazin-2-yl)-2-azaspiro[3.4]octane], for which, in assay [1], the Emax worked out at 61% and the EC50 turned out to be 1 nM. For the same compound, in assay [2], the Emax was found to be 0%.

On to `COc1ccccc1C1CCN([C@@H]2CCC3(C2)CN(c2cccnn2)C3)CC1` [Example 5O, (R)-6-(4-(2-methoxyphenyl)piperidin-1-yl)-2-(pyridazin-3-yl)-2-azaspiro[3.4]octane], for which, in assay [1], the Emax came to 39% and the EC50 is 55 nM. In assay [2], the Emax was determined as 0%.

As to `O=C(C1COC1)N1CC2(CC[C@H](N3CCC(c4ccccc4OC(F)F)CC3)C2)C1.O=C(O)CC(O)(CC(=O)O)C(=O)O` (single isomer, unassigned) [Example 8F, (S)-(6-(4-(2-(difluoromethoxy)phenyl)piperidin-1-yl)-2-azaspiro[3.4]octan-2-yl)(oxetan-3-yl)methanone or (R)-(6-(4-(2-(difluoromethoxy)phenyl)piperidin-1-yl)-2-azaspiro[3.4]octan-2-yl)(oxetan-3-yl)methanone citrate salt], in assay [1] (citrate salt), the “M4 FDSS PA” value amounted to 10% and the EC50 worked out at 1110 nM. Moreover, in assay [2] (citrate salt), the “M2 FDSS PA” value worked out at 0%.

Consider `COc1ccccc1C1CCN([C@@H]2CCC3(C2)CN(c2cncnc2)C3)CC1` [Example 5A, (R)-6-(4-(2-methoxyphenyl)piperidin-1-yl)-2-(pyrimidin-5-yl)-2-azaspiro[3.4]octane], for which, in assay [1], the Emax came to 64% and the concentration giving a half-maximal response (EC50) was 2 nM. The Emax in assay [2] amounted to 0%.

For the compound `O=C(N1CC2(CC[C@@H](N3CCC(c4ccccc4OC(F)(F)F)CC3)C2)C1)C1(F)CC1` (single isomer, unassigned) [Example 9A, (R)-(1-fluorocyclopropyl)(6-(4-(2-(trifluoromethoxy)phenyl)piperidin-1-yl)-2-azaspiro[3.4]octan-2-yl)methanone or (S)-(1-fluorocyclopropyl)(6-(4-(2-(trifluoromethoxy)phenyl)piperidin-1-yl)-2-azaspiro[3.4]octan-2-yl)methanone], in assay [1], the “M4 FDSS PA” value is reported as 36% and the EC50 is 342 nM. In assay [2], the “M2 FDSS PA” value worked out at 31% and the EC50 is 11800 nM.

With `COc1ccc(Cl)cc1C1CCN([C@H]2CCC3(C2)CN(C(=O)C2(F)CC2)C3)CC1` (single isomer, unassigned) [Example 8B, (S)-(6-(4-(5-chloro-2-methoxyphenyl)piperidin-1-yl)-2-azaspiro[3.4]octan-2-yl)(1-fluorocyclopropyl)methanone or (R)-(6-(4-(5-chloro-2-methoxyphenyl)piperidin-1-yl)-2-azaspiro[3.4]octan-2-yl)(1-fluorocyclopropyl)methanone], in assay [1], the “M4 FDSS PA” value was found to be 64% and the EC50 turned out to be 1 nM. For the same compound, the “M2 FDSS PA” value in assay [2] was found to be 0%.

Consider `FC(F)(F)Oc1ccccc1C1CCN([C@@H]2CCC3(C2)CN(c2nncs2)C3)CC1` (single isomer, unassigned) [Example 10M, (R)-2-(6-(4-(2-(trifluoromethoxy)phenyl)piperidin-1-yl)-2-azaspiro[3.4]octan-2-yl)-1,3,4-thiadiazole or (S)-2-(6-(4-(2-(trifluoromethoxy)phenyl)piperidin-1-yl)-2-azaspiro[3.4]octan-2-yl)-1,3,4-thiadiazole], for which, in assay [1], the “M4 FDSS PA” value is 67% and the EC50 is 11 nM. In addition, in assay [2], the “M2 FDSS PA” value worked out at 0% and the EC50 is more than 25000 nM.

On to `O=C(N1CC2(CC[C@@H](N3CCC(c4cc(F)ccc4OC4CC5(COC5)C4)CC3)C2)C1)C1(F)CC1` (single isomer, unassigned) [Example 11A, (R)-(6-(4-(2-((2-oxaspiro[3.3]heptan-6-yl)oxy)-5-fluorophenyl)piperidin-1-yl)-2-azaspiro[3.4]octan-2-yl)(1-fluorocyclopropyl)methanone or (S)-(6-(4-(2-((2-oxaspiro[3.3]heptan-6-yl)oxy)-5-fluorophenyl)piperidin-1-yl)-2-azaspiro[3.4]octan-2-yl)(1-fluorocyclopropyl)methanone], for which, in assay [1], the “M4 FDSS PA” value is reported as 45% and the EC50 stood at 38 nM. Besides, the “M2 FDSS PA” value in assay [2] turned out to be 0%.

Consider `O=C(N1CC2(CC[C@@H](N3CCC(c4ccccc4OCC4CC4)CC3)C2)C1)C1(F)CC1` (single isomer, unassigned) [Example 7T, (R)-(6-(4-(2-(cyclopropylmethoxy)phenyl)piperidin-1-yl)-2-azaspiro[3.4]octan-2-yl)(1-fluorocyclopropyl)methanone or (R)-(6-(4-(2-(cyclopropylmethoxy)phenyl)piperidin-1-yl)-2-azaspiro[3.4]octan-2-yl)(1-fluorocyclopropyl)methanone], for which, in assay [1], the “M4 FDSS PA” value came out at 5% and the EC50 came to 12100 nM. In assay [2], the “M2 FDSS PA” value was 19% and the EC50 was 18600 nM.
